The numbers were not newly measured in US11702444B2, “Method for preparing natural bioactive peptide Tubulysin U” (Shenzhen Institute of Geriatrics, priority 2020, dated 2023), which cites them from elsewhere.

One data set concerns 1A9 ovarian cancer cells. As to conditions: antiproliferative activity in vitro.
Data set [1] deals with MCF-7 breast cancer cells. The following applies: antiproliferative activity in vitro.

Turning to `CC[C@H](C)[C@H](NC(=O)[C@H]1CCCCN1C)C(=O)N[C@H](C[C@@H](OC(C)=O)c1nc(C(=O)N[C@@H](Cc2ccccc2)C[C@H](C)C(=O)O)cs1)C(C)C` [Tubulysin U], the 50% inhibitory concentration (IC50) (commonly the point on the concentration scale where inhibition reaches its midpoint) with 1A9 ovarian cancer cells was 0.65 nM; in data set [1] it was 0.4 nM.
